Publication PMC7355430, “Imunofan—RDKVYR Peptide—Stimulates Skin Cell Proliferation and Promotes Tissue Repair” (Molecules, 2020)
Peptide text beside a SMILES is read from it.

What was measured:
[1] = test system: human lymphocyte cultures; conditions: cited from earlier work
From the text: Peptides play an important role in immunology, often through being epitopes for adaptive immune systems. Besides, they take part in mobilizing immune cells. […] Unfortunately, application of synthetic peptides can lead to unwanted immune activation or allergies and immunogenicity or immune-related adverse effects can limit the effectiveness of peptide-based therapies [[35],[36],[37 ...

HaCaT keratinocytes [2] = assay: Chemotaxis assay, ThinCert inserts; format: cell-based, human; conditions: 0.1 and 1 µg/mL, 24 h, serum-free; n=12 (Figure S7B)
Protocol: The effect of IM on cell chemotaxis was assessed with ThinCert cell culture inserts (8 μm, Greiner Bio-One, Kremsmünster, Austria). Cells were starved overnight in serum-free high-glucose DMEM and then seeded on inserts placed in a 24-well plate, at a density of 100,000 cells, in serum-free medium. Culture medium with appropriate concentrations of IM was then added to the wells of the plate and incubated for 24 h. The cells were stained with 8 μM Calcein-AM (BD Pharmingen), then migratory cells were detached with typsin-EDTA (Sigma-Aldrich, St. Louis, MO, USA). Detached cells were transferred to another plate and read with a fluorescence plate reader at an excitation wavelength of 485 nm and an emission wavelength of 520 nm.

HaCaT keratinocytes [3] = assay: Migration assay, ibidi culture inserts; format: cell-based, human; conditions: 0.1 and 1 µg/mL, 24 h, mitomycin C pre-treatment, serum-free; n=12 (Figure S7A)
Protocol: (§1) The effect of IM on cell migration after 24 h was determined using ibidi culture inserts (ibidi, Cat. No. 81176, Gräfelfing, Germany). Cells were seeded in culture inserts, at a density of 30,000 per well, in appropriate medium supplemented with 10% FBS, which was changed to serum-free DMEM after 24 h. Mitomycin C (5 μg/mL) was added for 2 h to block cell proliferation. The medium was then changed, again, and cells were stimulated with an appropriate concentration of IM. After 24 h the cells were fixed with 3.7% paraformaldehyde, stained with 0.05% crystal violet, and the effect was measured with a phase-contrast fluorescent microscope (Zeiss, Oberkochen, Germany) and the surface areas were counted with Imaging Software NIS-Element Basic Research program.

skin cells = assay: Migration assay, ibidi culture inserts; format: cell-based, human; conditions: 0.1 and 1 µg/mL, 24 h
Protocol: as §1

ASCs = assay: Migration assay, ibidi culture inserts; format: cell-based, human; conditions: 0.1 µg/mL, 24 h; n=16
Protocol: as §1

[4] = test system: adipose-derived stem cells (ASCs); assay: LDH cytotoxicity assay; format: cell-based, human; conditions: 50–150 µg/mL, 48 h, serum-free medium; n=12 (Figure S5)
Protocol: (§2) Cell death was quantified by measurement of lactate dehydrogenase activity in cell culture supernatants (Takara, Japan, cat. No. MK401), following the manufacturer’s instructions. Cells were seeded into 96-well plates (BD, cat.no. 353872), at a density of 5000 cells per well, in medium (DMEM) supplemented with 10% FBS. After 24 h, the medium was changed to serum-free medium containing appropriate concentrations of IM peptide. After 48 h of stimulation supernatants were collected for LDH analysis. Cell death was normalized with respect to untreated control (without IM). Non-IM treated cells were used as negative control (0%) and Triton-X 100 (1%) was used as the positive control for maximum LDH release (maximum cytotoxicity, 100%). The assay was performed to IM in concentrations of 50–150 µg/mL.

HaCaT keratinocytes [5] = assay: LDH cytotoxicity assay; format: cell-based, human; conditions: 50–150 µg/mL, 48 h, serum-free medium; n=16 (Figure S5)
Protocol: as §2

46BR.1N fibroblasts = assay: LDH cytotoxicity assay; format: cell-based, human; conditions: 50–150 µg/mL, 48 h, serum-free medium; n=16 (Figure S5)
Protocol: as §2

CC(C)[C@H](NC(=O)[C@H](CCCCN)NC(=O)[C@H](CC(=O)O)NC(=O)[C@@H](N)CCCNC(=N)N)C(=O)N[C@@H](Cc1ccc(O)cc1)C(=O)N[C@@H](CCCNC(=N)N)C(=O)O [IM, H-Arg-Asp-Lys-Val-Tyr-Arg-OH] (H-RDKVYR-OH)
synthesis of IgE [1]: suppress the synthesis | production of IgM, IgG, and IgA ([1]; following stimulation with pokeweed mitogen): increase the production | inhibition of chemotaxis with respect to the control (HaCaT keratinocytes [2]): 10–20% | inhibition of migration compared to the control (HaCaT keratinocytes [3]): 5–10% | stimulation of migration of skin cells (skin cells): does not stimulate migration | promigratory effect compared to the control (ASCs): 10–15% | cytotoxicity (LDH release) [4]: not cytotoxic | cytotoxicity (LDH release) (HaCaT keratinocytes [5]): not cytotoxic | cytotoxicity (LDH release) (46BR.1N fibroblasts): not cytotoxic
